Consider seven compounds from patent US10731222B2 (RNA Diagnostics Inc., priority 2013, dated 2020).

Data set [1] has as its system Colon adenocarcinoma cells LS174T. Briefly: RNA disruption in colon adenocarcinoma cells LS174T. The class given is cell-based. To be noted: 24 hr. As to the method:
Colon adenocarcinoma cells LS174T were incubated with Sunitinib, a receptor tyrosine kinase inhibitor. RNA was isolated from the cells and analyzed using an Agilent Bioanalyzer.
RNA was isolated from the cells and analyzed using an Agilent Bioanalyzer.

In data set [2] the test system is locally advanced breast cancer. Briefly: Immunohistochemistry of tumour markers (Ki67, CD31, p53, bcl-2, caspase 3) before and 14 days after single-dose ZA, Group 1. Type of data set: in vivo, human. As to the method:
Enrolled patients received 4 mg single dose of ZA (Zometa®, Novartis, Milan, Italy) before starting any treatment (biological window of 14 days) (FIG. 9). Markers of tumor proliferation/death were tested immunohistochemically and at ATP and RNA level in tumour specimens obtained before and after ZA administration in those patients with locally advanced breast cancer (Group 1) and the count of circulating tumour cells (CTCs) by CellSearch System along with serological markers as marker of tumor dissemination were carried out in metastatic patients (Group 2).
(§1) In patients with locally advanced disease, the biological evaluations were performed at baseline on the diagnostic biopsy and repeated after 14 days from ZA administration on a second tru-cut biopsy (Group 1) whereas in patients with bone metastatic disease, CTCs counts along with serological markers were performed before ZA administration, at 48 hours and at 14 days after treatment (Group 2) (FIG. 9).
Immunohistochemical evaluation was performed on formalin-fixed paraffin-embedded tumor samples obtained at diagnosis and at 14th days on tru-cut. ER, PgR, overexpression of HER2 and Ki67, CD31 with p53 and bcl-2 staining were performed at the Pathology Unit of the Azienda Ospedaliera-Istituti Ospitalieri of Cremona (Italy). The immunohistochemical methodology is fully described elsewhere. The Caspase 3 immunohistochemistry was performed at the Pathology Unit of Peter MacCallum Cancer Centre (Australia); the used methodology followed that reported by others evaluating protein expression in breast tumours.

Data set [3] concerns locally advanced breast cancer. Kind of data set: RNA Disruption Index (RDI) of tumour samples before and 14 days after ZA, Group 1. Type of data set: in vivo, human. To be noted: 14 days after single ZA; baseline 0.63; 14 matched pairs; p<0.0076. As to the method: Tumour samples were shipped in a RNA preservative to Rna Diagnostics (Sudbury, Canada) where they were sub-sectioned to reduce the amount of tissue for RNA isolation based on gross pathology. RNA was then isolated using the Qiagen miRNeasy kit from each portion of the tumour and the RNA analysed using an Agilent Bioanalyzer 2100. […] Mean RDI values were calculated for each tumour sample.

Data set [4] has as its system circulating tumour cells (CTCs). Briefly: Circulating tumor cells (CTCs) assay, CellSearch, Group 2. Type of data set: in vivo, human. To be noted: for median CTC/M30+ve: basal 2. As for the experimental part:
as §1, with “Patients received a single dose of 4 mg diluted in 100 ml saline, intravenously, in about 15 mins of ZA without any other active concomitant treatments (i.e chemotherapy or endocrine therapy) (Groups 1 and 2). In” for “In”
The enumeration of CTC in whole blood was done by the CellSearch System according to manufacturers instruction as described by Cristofanilli et al.. The identification and count of CTCs was performed using the CellSearch Analyzer, a semi-automated fluorescence-based microscopy system that permits computer-generated reconstruction of cellular images. The criteria used are round or oval morphology, a DAPI positivity, positivity for cytokeratin and negative staining for CD45. Results are expressed as number of cells/7.5 ml of blood. Quality control was maintained via the CellSearch CTC Control Kit used to standardize reagents, instruments, and operator technique.
To quantify the fraction of apoptotic CTC, M30-positive CTC were detected integrating CTC assay with a specific mAb (M30 PEVIVA AB, Bromma, Sweden), recognizing the M30 neoepitope of cytokeratin 18 (CK18), analyzed with the fourth filter of the CellSearch System; results were expressed as the total number of CTC and M30-positive CTC per 7.5 mL of blood as described elsewhere.

The nature of data set [5]: Treatment tolerability of single-dose ZA. The class given is in vivo, human. As to the method: as §1, with “Patients received a single dose of 4 mg diluted in 100 ml saline, intravenously, in about 15 mins of ZA without any other active concomitant treatments (i.e chemotherapy or endocrine therapy) (Groups 1 and 2). In” for “In”
Patients were evaluated by physical examination, and blood samples were obtained for laboratory analysis.

The conditions of data set [6]: cited from earlier work.
The test system of data set [7] is breast cancer T2-4, N 0-1, M0. Kind of data set: Early response studies: RNA Disruption (RDI) 15 days after initiation of therapy. Type of data set: in vivo, human. An excerpt:
The Limit of Detection for RDI s RDI=0.3. RDI=1.5, 5 times the Level of Detection, was used as a provisional baseline cut off between nonresponders and responders.

For data set [8], the system named is locally advanced breast cancer. Kind of data set: ATP content of tumour biopsies (ATPlite luminescence), Group 1. The class given is in vivo, human. To be noted: tru-cut after ZA; 230.93 at incisional biopsy; 24 matched pairs; p=0.79. As for the experimental part:
ATP content was assayed as previously described using a luminescence assay system (ATPlite, PerkinElmer) according to manufacturing instructions. Briefly, frozen tumor biopsies were minced and homogenized in ice-cold lysis solution provided with the kit using a homogenizer. Membranes and cellular debris were eliminated by centrifuging at 12,000×g for 10 min at 4° C. Protein concentrations were determined by DC protein-assay (Bio-Rad Laboratories). Equal amounts of tissue proteins from each sample (30 μg/50 μl of lysis solution) were incubated with 50 μl of luciferine/luciferase substrate solution and analyzed for ATP content by using a Luminescence Counter (Enspire, PerkinElemer). ATP concentrations were calculated on the basis of an ATP standard-curve and expressed as pmol/mg protein.
(In ATP-based viability assays light output follows the ATP content of the culture.)

Data set [9] has as its system cytokeratin 18 (M30, M65). Kind of data set: M30/M65 Apoptosense assay, Group 2. The class given is in vivo, human. To be noted: 14 days after ZA; baseline 335.3 U/L; p=0.039. As to the method: Blood samples were collected from patients at the same time-point as indicated for Group 2 into the K2EDTA anticoagulant tubes, and then centrifuged at 1,500 g for 10 min to obtain plasma. Levels of M30 and M65 were measured in blood samples drawn at 8 am before starting ZA administration and thereafter at 48 hours and at 14 days after the initial treatment (FIG. 9).
M30 and M65 measurements were tested in triplicate accordingly to the manufacturers' instructions (PEVIVA AB, Bromma, Sweden) as previously described in detail.
The M30 is a biomarker assay for the quantitative determination of caspase-cleaved cytokeratin 18 (CK18) released from apoptotic carcinoma cells into blood and may estimate the tumour response to the treatment. Total CK18 (cleaved and non cleaved) is detected by M65. The levels of M30 and M65 were determined on blood samples of metastatic breast cancer patients (Group 2) collected at baseline, at 48 hours and at 14 days after ZA administration at the same time point of CTCs evaluation to assess apoptosis and cell death induced by the treatment. […] M65 levels were statistically significant higher after drug administration (14 days) when compared to the baseline (370.69 U/L versus 335.3 U/L; range 174.2-1646.5 versus 113.7-596.4; p=0.039).

Data set [10] has as its system A2780 ovarian cancer cells. Briefly: RNA disruption in drug-treated A2780 cells (Agilent Bioanalyzer electropherogram, RDI). To be noted: for response of cells in culture to the agent: dose- and time-dependent; for effect of caspase inhibitor on docetaxel-induced RNA disruption: 10 uM inhibitor with 0.2 uM docetaxel. The class given is cell-based, human. As to the method:
RNA was isolated from ovarian cancer cell line A2780 cells which had been treated with 10 μM docetaxel in 50% media or 20 μM epirubicin, each in 50% media. Cells were treated with the chemotherapeutic for 24 hours at 37° C. Isolated RNA was separated by microcapillary electrophoresis using the Agilent 2100 Bioanalyzer.
Cells were plated and treated with docetaxel concentrations ranging from 0.001-40 μM for 24 to 72 hours to assess the effect on cell number, RNA content, and integrity (measured using a Bioanalyzer 2100 from Agilent Technologies, Inc.).
A2780 cells treated for up to 72 hours with docetaxel at 0.005 uM and 0.2 uM, were analyzed for the amount of RNA per cell. RNA was isolated and electophoretically separated using an Agilent Bioanalyzer.
RNA was isolated and electrophoretically separated on an Agilent Bioanalyzer. As shown in FIG. 24D bands appeared just below the 28S (e.g. intermediate) and 18S bands (e.g. low banding region) at 0.005 uM and peaked at 0.2 uM.
A time course experiment was conducted in A2780 cells. Cells were treated for up to 72 hours with docetaxel at 0.005 uM and 0.2 uM. RNA was isolated and run on an Agilent Bioanalyzer.
The effect of a caspase inhibitor on RNA integrity changes was next assessed. Cells were treated with or without docetaxel at a concentration of 0.2 uM in the presence or absence of the caspase inhibitor Q-DEVD-OPH (Biovision Laboratories) at a concentration of 10 uM.

Data set [11] has as its system Colon adenocarcinoma cells SW480. Briefly: RNA disruption in colon adenocarcinoma cells SW480. Type of data set: cell-based. To be noted: 72 hr. As to the method:
Colon adenocarcinoma cells SW480 were incubated with Epirubicin, a DNA synthesis inhibitor. RNA was isolated from the cells and analyzed using an Agilent Bioanalyzer.

Data set [12] deals with docetaxel-resistant A2780DXL cells. Briefly: RNA disruption in docetaxel-resistant cells. Type of data set: cell-based. To be noted: in combination with docetaxel. As for the experimental part:
(§2) A docetaxel A2780 resistant cell line was made as described in Li et al., Int. J. Mol. Med 2004 14(20): 257-264.
A time course experiment was conducted. Sensitive parental and docetaxel resistant A2780 cells were treated with docetaxel for 24 hours. RNA was isolated and run on an Agilent Bioanalyzer.
The a\Ability of RDA to detect potentiators of docetaxel (Dxl) sensitivity. […] Thus, RDA may be used to screen for potentiators of chemotherapy drug cytotoxicity.

For data set [13] the test system is unchanged. Kind of data set: Clonogenic assay, docetaxel-resistant cells. The class given is cell-based. To be noted: clonogenic assay.
Excerpt: as §2
RDA like clonogenic assays can be used to identify drugs that are cytotoxic (FIG. 24C iv). […] The cell lines have widely differing sensitivity to docetaxel in a clonogenic assay, with IC50 values differing by over three orders of magnitude.

`CCN(CC)CCNC(=O)c1c(C)[nH]c(/C=C2\C(=O)Nc3ccc(F)cc32)c1C` [Sunitinib]: in data set [1], the “concentration at which RNA Disruption is evident” value worked out at 54 mM.
On to `O=P(O)(O)C(O)(Cn1ccnc1)P(=O)(O)O` [ZA, zoledronic acid], for which, in data set [2] (1 of 31), the “specimens with increased bcl-2” value came out at 3.2% and the “specimens with increased p53” value came to 3.2%. The “specimens with decreased p53” value in [2] (3 of 31) worked out at 9.7%. Also, in data set [2] (5 of 33 patients, 14 days), the “patients with stable Ki67 expression” value came to 15.2%. In addition, in data set [2] (6 of 33 patients, 14 days), the “patients with increase in Ki67 expression” value amounted to 18.2%. For the same compound, in [2] (22 of 33 patients, 14 days), the “patients with decrease in Ki67 expression” value is 66.6%. For the same compound, the “specimens with unchanged p53” value in [2] (27 of 31) is 87.1%. Besides, the “specimens with decreased bcl-2” value in data set [2] (30 of 31) is given as 96.8%. Besides, the “median Ki67” value in [2] (14 days after ZA infusion, basal 18%, n=33, p=0.0032) is reported as 16%. For the same compound, the “bcl-2 expression (median)” value in [2] (14 days, baseline 100%, p<0.00001) came to 40%. For the same compound, the “median CD31 expression” value in data set [2] (after treatment (14 days), basal 27%, p=0.0001) worked out at 16%. The RDI level in [3] is given as 1.21. Also, the “median alive CTC” value in data set [4] (48 hours after ZA infusion, basal 12, p=0.0012) was 4 cells/7.5 ml of blood. Moreover, the “median CTC/M30+ve” value in [4] (48 hours, p=0.7065) is 2 cells/7.5 ml of blood. For the same compound, in [4] (14 days, p=0.018), the “median CTC/M30+ve” value was 3 cells/7.5 ml of blood. In data set [5] (in vivo), the “levels of bone-turnover markers (calcium, PTH, BALP, VIT-D3(1-25))” value is reported as “did not lead significant difference” and the “osteonecrosis of the jaw or other significant adverse events” value was “No patient developed”. Further, the tolerability entry in data set [5] (single 4 mg i.v. dose) is listed as “well tolerated”. Besides, the “mean serum creatinine level” value in [5] (with treatment) was “did not vary”. Further, the “plasma concentration relative to Cmax” value in [6] (24 h post-dose) is < 1 % of Cmax. Also, the “dose retained in the skeleton or in fat tissue” value in data set [6] (in vivo) was 60%. The “dose excreted unmetabolized in the urine” value in [6] (within 24 hours after administration) is “up to 41%”. Further, in data set [7], the “Patients Responding (RDI above Baseline RDI = 1.5)” value was 8 patients and the “RDI Range, Responding Patients” value was 1.8-8.9. Also, the “average ATP value” in data set [8] is reported as 216.57 pmol/mg protein. The compound further came in with an M65 level in [9] of 370.69 U/L.
Turning to `N.N.O=C([O-])C1(C(=O)[O-])CCC1.[Pt+2]` [carboplatin], in [10], the “response of cells in culture to the agent” value (“response of cells in culture” below) is given as “RNA disruption”.
For the compound `COc1cccc2c1C(=O)c1c(O)c3c(c(O)c1C2=O)C[C@@](O)(C(=O)CO)C[C@@H]3O[C@H]1C[C@H](N)[C@@H](O)[C@H](C)O1` [epirubicin], the “concentration at which RNA Disruption is evident” value in data set [11] amounted to 0.5 mM. For the same compound, the electropherogram pattern entry in [10] (20 μM in 50% media, 24 hours, 37° C.) was “intermediate bands between the 18S and 28S peaks”. The “response of cells in culture” value in data set [10] was “RNA disruption”.
For the compound `CC(=O)O[C@H]1C(=O)[C@@]2(C)[C@H]([C@H](OC(=O)c3ccccc3)[C@]3(O)C[C@H](OC(=O)[C@H](O)[C@@H](NC(=O)c4ccccc4)c4ccccc4)C(C)=C1C3(C)C)[C@]1(OC(C)=O)CO[C@@H]1C[C@@H]2O` [paclitaxel], the “response of cells in culture” value in data set [10] is reported as “RNA disruption”.
Take Cyclosporine A: in data set [12], the “effect on docetaxel-induced RNA disruption (RDI)” value is “restored docetaxel's ability to induce RNA disruption”. Also, the “effect on docetaxel sensitivity” value in data set [13] is on record as “restores sensitivity to docetaxel”.
In the case of Q-DEVD-OPH, the “effect of caspase inhibitor on docetaxel-induced RNA disruption” value was “reduces the loss of 28S and 18S bands at 72 hr” in data set [10]; “significantly reduced RNA disruption” in data set [10] (listed as Q-DEVD-Oph).
